For this test, the target named is T1, recombinant Vps34 (Homo sapiens, UniProt Q8NEB9).
T1 construct: purchased Invitrogen PV5126
Nature of the test: Phosphorylation of phosphatidylinositol (PI) by Vps34 in vitro, ADP detected by TR-FRET (HTRF Transcreener ADP). The following applies: 10 μM ATP, 55 μg/ml PI, approximately 3 nM Vps34, 1 hour at ambient temperature; absolute IC50, mean of two independent experiments; read-out: IC50 activity range. In kind it is biochemical. In general terms: TR-FRET usually uses a lanthanide donor and a delayed reading to cut background.

SMILES strings stand for the structures.

T1 sequence (Q8NEB9 whole entry): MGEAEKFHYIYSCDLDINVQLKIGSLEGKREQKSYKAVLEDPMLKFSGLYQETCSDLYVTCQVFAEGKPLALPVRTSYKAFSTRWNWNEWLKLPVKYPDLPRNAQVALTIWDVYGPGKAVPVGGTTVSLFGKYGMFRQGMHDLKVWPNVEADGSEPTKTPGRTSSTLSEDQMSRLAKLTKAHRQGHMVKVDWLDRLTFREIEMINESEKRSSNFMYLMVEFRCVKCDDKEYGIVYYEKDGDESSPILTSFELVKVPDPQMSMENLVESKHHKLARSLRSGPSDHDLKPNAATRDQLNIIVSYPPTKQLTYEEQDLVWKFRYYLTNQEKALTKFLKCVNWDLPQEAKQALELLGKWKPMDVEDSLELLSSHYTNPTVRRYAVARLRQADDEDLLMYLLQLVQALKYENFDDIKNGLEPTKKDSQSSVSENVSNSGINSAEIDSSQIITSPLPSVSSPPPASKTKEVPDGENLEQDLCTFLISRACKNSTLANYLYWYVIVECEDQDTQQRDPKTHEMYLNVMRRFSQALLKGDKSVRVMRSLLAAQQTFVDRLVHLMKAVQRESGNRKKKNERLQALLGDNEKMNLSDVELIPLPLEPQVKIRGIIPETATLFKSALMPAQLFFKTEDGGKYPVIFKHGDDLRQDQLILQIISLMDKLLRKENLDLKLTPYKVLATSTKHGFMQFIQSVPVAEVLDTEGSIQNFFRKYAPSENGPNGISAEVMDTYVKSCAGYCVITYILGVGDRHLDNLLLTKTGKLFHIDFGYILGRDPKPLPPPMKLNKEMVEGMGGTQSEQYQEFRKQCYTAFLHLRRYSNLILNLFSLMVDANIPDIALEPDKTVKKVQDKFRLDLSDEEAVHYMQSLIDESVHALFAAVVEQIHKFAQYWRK

As for `C[C@@H]1COCCN1c1cc(=O)n2c(n1)N(CC(=O)c1cccnc1)[C@H](C(F)(F)F)CC2` [Example 11, (S)-2-((R)-3-Methyl-morpholin-4-yl)-9-(2-oxo-2-pyridin-3-yl-ethyl)-8-trifluoromethyl-6,7,8,9-tetrahydro-pyrimido[1,2-a]-pyrimidin-4-one], the IC50 (in general, the midpoint of a concentration-inhibition curve) was under 10 nM.

As to `C[C@@H]1COCCN1c1cc(=O)n2c(n1)N(CC1CCCO1)[C@H](C(F)(F)F)CC2` (single isomer, unassigned) [Example 136], the IC50 is under 10 nM.

Consider `C[C@@H]1COCCN1c1cc(=O)n2c(n1)N(c1ccnc(C3CC3)c1)[C@H](C(F)(F)F)CC2` [Example 89, (S)-9-(2-Cyclopropyl-pyridin-4-yl)-2-((R)-3-methylmorpholin-4-yl)-8-trifluoromethyl-6,7,8,9-tetrahydro-pyrimido[1,2-a]-pyrimidin-4-one], for which the IC50 was under 10 nM.

For `C[C@@H]1COCCN1c1cc(=O)n2c(n1)N(C/C(=N/O)C1CC1)[C@H](C(F)(F)F)CC2` (single isomer, unassigned) [Example 305], the IC50 is under 10 nM.

With `C[C@@H]1COCCN1c1cc(=O)n2c(n1)N(CC(=O)C1CCOC1)[C@H](C(F)(F)F)CC2` (stereo partly drawn) [Example 269, (S)-2-((R)-3-Methyl-morpholin-4-yl)-9-[2-oxo-2-(tetrahydro-furan-3-yl)ethyl]-8-trifluoromethyl-6,7,8,9-tetrahydro-pyrimido[1,2-a]-pyrimidin-4-one], the IC50 lay in the range of 10 to 100 nM.

In the case of `C[C@@H]1COCCN1c1cc(=O)n2c(n1)N(CCC(C)(C)F)[C@H](C(F)(F)F)CC2` [Example 267, (S)-9-(3-Fluoro-3-methylbutyl)-2-((R)-3-methylmorpholin-4-yl)-8-trifluoromethyl-6,7,8,9-tetrahydro-pyrimido[1,2-a]-pyrimidin-4-one], the IC50 was under 10 nM.

For `C[C@@H]1COCCN1c1cc(=O)n2c(n1)N(Cc1ccnc(F)c1)[C@H](C(F)(F)F)CC2` [Example 257, (S)-9-(2-Fluoropyridin-4-ylmethyl)-2-((R)-3-methylmorpholin-4-yl)-8-trifluoromethyl-6,7,8,9-tetrahydro-pyrimido[1,2-a]-pyrimidin-4-one], the IC50 is under 10 nM.

Regarding `CC(C)Oc1cc(CN2c3nc(N4CCOC[C@H]4C)cc(=O)n3CC[C@H]2C(F)(F)F)ccn1` [Example 225, (S)-9-(2-Isopropoxy-pyridin-4-ylmethyl)-2-((R)-3-methyl-morpholin-4-yl)-8-trifluoromethyl-6,7,8,9-tetrahydro-pyrimido[1,2-a]-pyrimidin-4-one], the IC50 is under 10 nM.

In the case of `CCC(C)N1c2nc(N3CCOC[C@H]3C)cc(=O)n2CC[C@H]1C(F)(F)F` (single isomer, unassigned) [Example 284], the IC50 was under 10 nM.

Consider `Cc1nc(CN2c3nc(N4CCOC[C@H]4C)cc(=O)n3C[C@@]2(C)C(F)(F)F)no1` [Example 240, (S)-2-Methyl-7-((R)-3-methylmorpholin-4-yl)-1-(5-methyl-[1,2,4]oxadiazol-3-yl-methyl)-2-trifluoromethyl-2,3-dihydro-1H-imidazo[1,2-a]-pyrimidin-5-one], for which the IC50 is under 10 nM.

`C[C@@H]1COCCN1c1cc(=O)n2c(n1)N(c1ccc(OC(F)F)nc1)[C@H](C(F)(F)F)CC2` [Example 124, (S)-9-(6-Difluoromethoxy-pyridin-3-yl)-2-((R)-3-methylmorpholin-4-yl)-8-trifluoromethyl-6,7,8,9-tetrahydro-pyrimido[1,2-a]-pyrimidin-4-one]: the IC50 is under 10 nM.

As for `CCOC(=O)CN1c2nc(N3CCOC[C@H]3C)cc(=O)n2CC[C@H]1C(F)(F)F` [Example 14, [(S)-8-((R)-3-Methyl-morpholin-4-yl)-6-oxo-2-trifluoromethyl-3,4-dihydro-2H,6H-pyrimido[1,2-a]-pyrimidin-1-yl]acetic acid ethyl ester], the IC50 was under 10 nM.

With `C[C@@H]1COCCN1c1nc2n(c(=O)c1F)[C@@H](C(F)(F)F)CCN2CC(=O)c1ccccn1` [Example 135, (R)-3-Fluoro-2-((R)-3-methylmorpholin-4-yl)-9-(2-oxo-2-pyridin-2-ylethyl)-6-trifluoromethyl-6,7,8,9-tetrahydro-pyrimido[1,2-a]-pyrimidin-4-one], the IC50 was under 10 nM.

`C[C@@H]1COCCN1c1nc2n(c(=O)c1F)CC[C@@H](C(F)(F)F)N2CC(=O)N1CCOCC1` [Example 235, (S)-3-Fluoro-2-((R)-3-methylmorpholin-4-yl)-9-(2-morpholin-4-yl-2-oxoethyl)-8-trifluoromethyl-6,7,8,9-tetrahydro-pyrimido[1,2-a]-pyrimidin-4-one]: the IC50 lay in the range of 10 to 100 nM.

As to `Cc1nc(CN2c3nc(N4CC5CCC(C4)O5)c(F)c(=O)n3CC[C@H]2C(F)(F)F)no1` [Example 275, (S)-3-Fluoro-9-(5-methyl-[1,2,4]oxadiazol-3-yl-methyl)-2-(8-oxa-3-azabicyclo[3.2.1]oct-3-yl)-8-trifluoromethyl-6,7,8,9-tetrahydro-pyrimido[1,2-a]-pyrimidin-4-one], the IC50 lay within 10 to 100 nM.

Take `C[C@@H]1COCCN1c1nc2n(c(=O)c1F)CC[C@@H](C(F)(F)F)N2Cc1ccno1` [Example 46, (S)-3-Fluoro-9-isoxazol-5-ylmethyl-2-((R)-3-methyl-morpholin-4-yl)-8-trifluoromethyl-6,7,8,9-tetrahydro-pyrimido[1,2-a]-pyrimidin-4-one]: the IC50 is under 10 nM.

As for `O=c1cc(N2CC3CCC(C2)O3)nc2n1CC[C@@H](C(F)(F)F)N2c1cc(F)cc(F)c1` [Example 161, (S)-9-(3,5-Difluoro-phenyl)-2-(8-oxa-3-azabicyclo[3.2.1]oct-3-yl)-8-trifluoromethyl-6,7,8,9-tetrahydro-pyrimido[1,2-a]-pyrimidin-4-one], the IC50 lay in the range of 10 to 100 nM.

In the case of `C[C@@H]1COCCN1c1nc2n(c(=O)c1F)CC[C@@H](C(F)(F)F)N2Cc1nc(C(C)(C)C)no1` [Example 250, (S)-9-(3-tert-Butyl-[1,2,4]oxadiazol-5-yl-methyl)-3-fluoro-2-((R)-3-methyl-morpholin-4-yl)-8-trifluoromethyl-6,7,8,9-tetrahydro-pyrimido[1,2-a]-pyrimidin-4-one], the IC50 is under 10 nM.

Regarding `CC(C)c1nc(CN2c3nc(N4CCOC[C@H]4C)c(F)c(=O)n3CC[C@H]2C(F)(F)F)no1` [Example 246, (S)-3-Fluoro-9-(5-isopropyl-[1,2,4]oxadiazol-3-yl-methyl)-2-((R)-3-methylmorpholin-4-yl)-8-trifluoromethyl-6,7,8,9-tetrahydro-pyrimido[1,2-a]-pyrimidin-4-one], the IC50 is under 10 nM.

With `CC(C)C(F)CN1c2nc(N3CCOC[C@H]3C)c(F)c(=O)n2CC[C@H]1C(F)(F)F` (single isomer, unassigned) [Example 328], the IC50 is under 10 nM.

With `C[C@@H]1COCCN1c1cc(=O)n2c(n1)N(CC(=O)N1CCCCO1)[C@H](C(F)(F)F)CC2` [Example 318, (S)-2-((R)-3-Methyl-morpholin-4-yl)-9-(2-[1,2]oxazinan-2-yl-2-oxoethyl)-8-trifluoromethyl-6,7,8,9-tetrahydropyrimido-[1,2-a]pyrimidin-4-one], the IC50 is under 10 nM.

For the compound `C[C@H]1COCCN1c1cc(=O)n2c(n1)N(Cc1ccc(Cl)s1)[C@H](C(F)(F)F)CC2` [Example 178, (S)-9-(5-Chloro-thiophen-2-ylmethyl)-2-((S)-3-methyl-morpholin-4-yl)-8-trifluoromethyl-6,7,8,9-tetrahydro-pyrimido[1,2-a]-pyrimidin-4-one], the IC50 was 10 to 100 nM.

Regarding `C[C@@H]1COCCN1c1cc(=O)n2c(n1)N(c1ccc(C3CC3)nc1)[C@H](C(F)(F)F)CC2` [Example 302, (S)-9-(6-Cyclopropyl-pyridin-3-yl)-2-((R)-3-methylmorpholin-4-yl)-8-trifluoromethyl-6,7,8,9-tetrahydro-pyrimido[1,2-a]-pyrimidin-4-one], the IC50 is under 10 nM.

As for `C[C@@H]1COCCN1c1nc2n(c(=O)c1F)CC[C@@H](C(F)(F)F)N2CC(=O)N1CC2(COC2)C1` [Example 293, (S)-3-Fluoro-2-((R)-3-methylmorpholin-4-yl)-9-[2-(2-oxa-6-aza-spiro[3.3]hept-6-yl)-2-oxoethyl]-8-trifluoromethyl-6,7,8,9-tetrahydro-pyrimido[1,2-a]-pyrimidin-4-one], the IC50 was under 10 nM.

On to `C[C@@H]1COCCN1c1cc(=O)n2c(n1)N(Cc1ccnn1C(F)F)[C@](C)(C(F)(F)F)CC2` [Example 214, (S)-9-(2-Difluoromethyl-2H-pyrazol-3-ylmethyl)-8-methyl-2-((R)-3-methylmorpholin-4-yl)-8-trifluoromethyl-6,7,8,9-tetrahydro-pyrimido[1,2-a]-pyrimidin-4-one], for which the IC50 was under 10 nM.

Take `CC1(C)COCCN1c1cc(=O)n2c(n1)N(CC(=O)c1ccccc1)[C@H](C(F)(F)F)CC2` [Example 150, (S)-2-(3,3-Dimethyl-morpholin-4-yl)-9-(2-oxo-2-phenylethyl)-8-trifluoromethyl-6,7,8,9-tetrahydro-pyrimido[1,2-a]-pyrimidin-4-one]: the IC50 was 10 to 100 nM.

In the case of `COC(CN1c2nc(N3CCOC[C@H]3C)cc(=O)n2CC[C@H]1C(F)(F)F)C(C)C` (single isomer, unassigned) [Example 288], the IC50 was under 10 nM.

For the compound `C[C@@H]1COCCN1c1nc2n(c(=O)c1F)[C@@H](C(F)(F)F)CCN2c1ccnc(Cl)c1` [Example 122, (R)-9-(2-Chloro-pyridin-4-yl)-3-fluoro-2-((R)-3-methyl-morpholin-4-yl)-6-trifluoromethyl-6,7,8,9-tetrahydro-pyrimido[1,2-a]-pyrimidin-4-one], the IC50 was under 10 nM.

For the compound `CC(=O)CN1c2nc(N3CCOC[C@H]3C)c(F)c(=O)n2CC[C@H]1C(F)(F)F` [Example 7, (S)-3-Fluoro-2-((R)-3-methylmorpholin-4-yl)-9-(2-oxopropyl)-8-trifluoromethyl-6,7,8,9-tetrahydro-pyrimido[1,2-a]-pyrimidin-4-one], the IC50 was under 10 nM.

In the case of `C[C@@H]1COCCN1c1cc(=O)n2c(n1)N(Cc1ccnn1C(F)F)C(C)(C)CC2` [Example 72, 9-(2-Difluoromethyl-2H-pyrazol-3-yl-methyl)-8,8-dimethyl-2-((R)-3-methyl-morpholin-4-yl)-6,7,8,9-tetrahydro-pyrimido[1,2-a]-pyrimidin-4-one], the IC50 fell in the range of 10 to 100 nM.

The record behind these values is US11739100B2, “2,3-dihydro-1h-imidazo{1,2-a}pyrimidin-5-one and this 1,2,3,4-tetrahydropyrimido{1,2-a}pyrimidin-6-one derivatives comprising a substituted morpholine, preparation thereof and pharmaceutical use thereof” (SANOFI, priority 2012, dated 2023).
